Results: ChEMBL document CHEMBL5357033, “Discovery of Diverse Sesquiterpenoids from Crossiella cryophila through Genome Mining and NMR Tracking” (J Nat Prod, 2024)

Assays:
[1] = test system: Staphylococcus capitis; assay: Antimicrobial activity against Staphylococcus capitis W7 assessed as reduction in microbial growth by broth microdilution method; type: functional
[2] = test system: Micrococcus luteus; assay: Antimicrobial activity against Micrococcus luteus ATCC 4685 assessed as reduction in microbial growth by broth microdilution method; type: functional
[3] = test system: Staphylococcus aureus; assay: Antimicrobial activity against methicillin resistant Staphylococcus aureus assessed as reduction in microbial growth by broth microdilution method; type: functional
[4] = test system: Enterococcus; assay: Antimicrobial activity against Vancomycin-resistant Enterococci assessed as reduction in microbial growth by broth microdilution method; type: functional
[5] = test system: Staphylococcus aureus; assay: Antimicrobial activity against Staphylococcus aureus LV-B1 assessed as reduction in microbial growth by broth microdilution method; type: functional
[6] = test system: Bacillus subtilis; assay: Antimicrobial activity against Bacillus subtilis ATCC 6051 assessed as reduction in microbial growth by broth microdilution method; type: functional
[7] = test system: Klebsiella pneumoniae; assay: Antimicrobial activity against Klebsiella pneumoniae W5 assessed as reduction in microbial growth by broth microdilution method; type: functional
[8] = test system: Escherichia coli; assay: Antimicrobial activity against Escherichia coli CGMCC 1.3344 assessed as reduction in microbial growth by broth microdilution method; type: functional
[9] = test system: Shigella sonnei; assay: Antimicrobial activity against Shigella sonnei ZD12 assessed as reduction in microbial growth by broth microdilution method; type: functional
[10] = test system: Paracidovorax avenae; assay: Antimicrobial activity against Acidovorax avenae ATCC 19307 assessed as reduction in microbial growth by broth microdilution method; type: functional
[11] = test system: Pseudomonas syringae; assay: Antimicrobial activity against Pseudomonas syringae ATCC-BAA-2502 assessed as reduction in microbial growth by broth microdilution method; type: functional
[12] = test system: Xanthomonas oryzae; assay: Antimicrobial activity against Xanthomonas oryzae ATCC 35933 assessed as reduction in microbial growth by broth microdilution method; type: functional
[13] = test system: A549; assay: Anticancer activity against human A549 cells assessed as reduction in cell viability at 40 uM measured after 48 hrs by CCK-8 method relative to control; type: functional
[14] = test system: HepG2; assay: Anticancer activity against human HepG2 cells assessed as reduction in cell viability at 40 uM measured after 48 hrs by CCK-8 method relative to control; type: functional
[15] = test system: SW480; assay: Anticancer activity against human SW480 cells assessed as reduction in cell viability at 40 uM measured after 48 hrs by CCK-8 method relative to control; type: functional
[16] = test system: MDA-MB-231; assay: Anticancer activity against human MDA-MB-231 cells assessed as reduction in cell viability at 40 uM measured after 48 hrs by CCK-8 method relative to control; type: functional
[17] = test system: MCF7; assay: Anticancer activity against human MCF7 cells assessed as reduction in cell viability at 40 uM measured after 48 hrs by CCK-8 method relative to control; type: functional
[18] = test system: RAW264.7; assay: Cytotoxicity against mouse RAW264.7 cells measured after 24hrs by CCK-8 method relative to control; type: toxicity, cell-based; set-up: concentration or dose not given beside the values; conditions: raw264.7, 24 h
[19] = test system: RAW264.7; assay: Antiinflammatory activity in mouse RAW264.7 assessed as reduction in LPS-induced NO production incubated for 24 hrs by Griess method relative to control; type: functional; set-up: concentration or dose not given beside the values

SMILES	MIC [1]	MIC [2]	MIC [3]	MIC [4]	MIC [5]	MIC [6]	MIC [7]	MIC [8]	MIC [9]	MIC [10]	MIC [11]	MIC [12]	Activity [13]	Activity [14]	Activity [15]	Activity [16]	Activity [17]	Activity [18]	Activity [19]
CC1(C)[C@H]2/C=C(/C=O)CC[C@@H]3O[C@@]3(C)CC[C@@H]21	> 128 µg/mL	> 128 µg/mL	> 128 µg/mL	> 128 µg/mL	> 128 µg/mL	> 128 µg/mL	> 128 µg/mL	> 128 µg/mL	> 128 µg/mL	> 128 µg/mL	> 128 µg/mL	> 128 µg/mL	2.4%	-4.51%	-21.6%	-2.33%	16.05%	81.51%	-2.46%
C/C1=C\CC/C(C=O)=C\[C@H]2[C@H](C[C@H]1O)C2(C)C	> 128 µg/mL	> 128 µg/mL	> 128 µg/mL	> 128 µg/mL	> 128 µg/mL	> 128 µg/mL	> 128 µg/mL	> 128 µg/mL	> 128 µg/mL	> 128 µg/mL	> 128 µg/mL	> 128 µg/mL	-2.39%	-8.84%	-28.68%	-11.44%	1.32%	89.61%	1.33%
CC1=C[C@@H]2[C@@H](C(C)C)CC[C@@](C)(O)[C@@H]2C[C@@H]1O	> 128 µg/mL	> 128 µg/mL	> 128 µg/mL	> 128 µg/mL	> 128 µg/mL	> 128 µg/mL	> 128 µg/mL	> 128 µg/mL	> 128 µg/mL	> 128 µg/mL	> 128 µg/mL	> 128 µg/mL	0.28%	-1.38%	-7.85%	-7.21%	6.01%	82.75%	-1.33%
C[C@H]1C[C@H](O)[C@@H]2[C@H]3[C@H]1OC(C)(C)[C@@H]3CC[C@@]2(C)O	> 128 µg/mL	> 128 µg/mL	> 128 µg/mL	> 128 µg/mL	> 128 µg/mL	> 128 µg/mL	> 128 µg/mL	> 128 µg/mL	> 128 µg/mL	> 128 µg/mL	> 128 µg/mL	> 128 µg/mL	0.07%	-8.63%	-5.32%	1.66%	8.24%	84.88%	0.67%
CC1=C[C@@H]2[C@@H](C(C)C)CC[C@@](C)(O)[C@@H]2CC1	> 128 µg/mL	> 128 µg/mL	> 128 µg/mL	> 128 µg/mL	> 128 µg/mL	> 128 µg/mL	> 128 µg/mL	> 128 µg/mL	> 128 µg/mL	> 128 µg/mL	> 128 µg/mL	> 128 µg/mL	12.06%	4.12%	6.82%	32.06%	18.49%	90.3%	-4.95%
CC1(C)[C@H]2[C@@H]1CC[C@@]1(C)[C@H](O)CC[C@](O)(CO)[C@H]21	> 128 µg/mL	> 128 µg/mL	> 128 µg/mL	> 128 µg/mL	> 128 µg/mL	> 128 µg/mL	> 128 µg/mL	> 128 µg/mL	> 128 µg/mL	> 128 µg/mL	> 128 µg/mL	> 128 µg/mL	0.34%	3.99%	7.24%	27.39%	11.1%	81.69%	-3.05%
CC1(C)[C@H]2/C=C(/CO)CC[C@@H]3O[C@@]3(C)CC[C@@H]21	> 128 µg/mL	> 128 µg/mL	> 128 µg/mL	> 128 µg/mL	> 128 µg/mL	> 128 µg/mL	> 128 µg/mL	> 128 µg/mL	> 128 µg/mL	> 128 µg/mL	> 128 µg/mL	> 128 µg/mL	13%	-11.68%	-7.55%	4.47%	14.53%	8.25%	-6.95%
